Experimental findings from publication PMC6925601 (European journal of medicinal chemistry, 2019) are described below.

Data set [1] deals with THP-1 monocytic leukemia cells. Nature of the data set: Anticancer cell cytotoxicity assay. To be noted: Homo sapiens, THP-1, 24 h, read-out: THP-1 IC50 (μM). Format: cell-based.
Data set [2] deals with Jurkat T cells. Nature of the data set: Anticancer cell cytotoxicity assay. In kind it is cell-based. To be noted: Homo sapiens, 24 h, read-out: Jurkat IC50 (μM).
Data set [3] has as its target T1, MKK7 (Homo sapiens, UniProt O14733).
T1 sequence (O14733 1-419): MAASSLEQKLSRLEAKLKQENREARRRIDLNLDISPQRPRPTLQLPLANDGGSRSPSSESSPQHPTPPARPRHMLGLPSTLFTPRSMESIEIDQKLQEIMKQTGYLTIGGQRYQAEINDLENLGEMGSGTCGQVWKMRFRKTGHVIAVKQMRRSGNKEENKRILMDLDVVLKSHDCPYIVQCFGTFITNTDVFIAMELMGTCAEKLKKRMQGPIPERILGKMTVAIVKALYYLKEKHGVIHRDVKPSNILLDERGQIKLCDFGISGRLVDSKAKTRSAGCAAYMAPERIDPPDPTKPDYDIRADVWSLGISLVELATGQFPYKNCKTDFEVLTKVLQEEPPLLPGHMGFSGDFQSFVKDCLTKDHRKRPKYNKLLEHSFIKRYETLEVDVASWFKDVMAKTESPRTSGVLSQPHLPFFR
Description: KINOMEscan kinase binding assay. The note with it: for Kd (μM) vs MKK7: KINOMEscan, duplicate, maximum concentration 30 μM.

In data set [4] the test system is MonoMac6 monocytic leukemia cells. Description: Anticancer cell cytotoxicity assay. In kind it is cell-based. To be noted: Homo sapiens, MONO-MAC-6, 24 h, read-out: MonoMac6 IC50 (μM).
Data set [5] deals with U936. Nature of the data set: Anticancer cell cytotoxicity assay. The note with it: Homo sapiens, 24 h, read-out: U936 IC50 (μM). Format: cell-based.
The subject of data set [6] is primary peripheral blood mononuclear cells (PBMCs). Description: Cytotoxicity assay. Format: cell-based. To be noted: Homo sapiens, PBMC, 24 h, read-out: PBMCs IC50 (μM).
In data set [7] the target is T2, human neutrophil elastase (HNE) (Homo sapiens, UniProt P08246).
T2 sequence (P08246 30-247 limits assumed): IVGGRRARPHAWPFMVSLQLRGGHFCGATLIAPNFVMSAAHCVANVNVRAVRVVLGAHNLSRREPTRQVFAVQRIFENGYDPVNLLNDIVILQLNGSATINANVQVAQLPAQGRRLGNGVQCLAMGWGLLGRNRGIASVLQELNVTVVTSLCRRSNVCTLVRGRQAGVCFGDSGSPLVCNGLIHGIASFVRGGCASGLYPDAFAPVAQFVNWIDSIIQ
Description: HNE inhibitory assay. Format: biochemical.

The subject of data set [8] is nine tumor cell lines and primary PBMCs. Nature of the data set: Cytotoxicity across the panel of nine tumor cell lines and PBMCs. In kind it is cell-based, human. The note with it: 24 h, up to 50 μM.
Data set [9] concerns MCF7 breast adenocarcinoma cells. Nature of the data set: Anticancer cell cytotoxicity assay. The note with it: Homo sapiens, MCF7, 24 h, read-out: MCF7 IC50 (μM). Format: cell-based.
In data set [10] the test system is LS174T colorectal adenocarcinoma cells. Nature of the data set: Anticancer cell cytotoxicity assay. In kind it is cell-based. The note with it: Homo sapiens, 24 h, read-out: LS174T IC50 (μM).
For data set [11], the system named is HL60 promyelocytic leukemia cells. Description: Anticancer cell cytotoxicity assay. To be noted: Homo sapiens, HL-60, 24 h, read-out: HL60 IC50 (μM). In kind it is cell-based.
Data set [12] deals with SW-982 synovial sarcoma cells. Description: Anticancer cell cytotoxicity assay. To be noted: Homo sapiens, SW982, 24 h, read-out: SW-982 IC50 (μM). Format: cell-based.
Data set [13] concerns A549 lung carcinoma cells. Description: Anticancer cell cytotoxicity assay. The note with it: Homo sapiens, A549, 24 h, read-out: A549 IC50 (μM). In kind it is cell-based.

The structures appear in SMILES notation. A value given as a limit tells only on which side of the number the result lay.

`CC(C)=CCC1=C(O)C(=O)c2ccccc2C1=O` [Compound 3, lapachol]: the IC50 in data set [1], in data set [2], in data set [4], in [5], in data set [6] and in data set [7] was more than 50 µM each time. For the same molecule, the IC50 in data set [9], in data set [10], in data set [11], in data set [12] and in data set [13] was more than 50 µM each time. This molecule also had a Kd in data set [3] of more than 30 µM. Further, in data set [3], the “Kd (μM) vs MKK7” value is listed as “did not bind”. Moreover, the “cytotoxicity toward tumor cell lines and PBMCs (in words)” value in data set [8] is “did not find any toxicity”.

`COc1ccc(OC)c2c1C(=O)C=C(SCCC(=O)O)C2=O` [Compound 14, GN25] registered a Kd in data set [3] of more than 30 µM. Besides, in data set [3], the “Kd (μM) vs MKK7” value is “inactive”. Besides, the IC50 in data set [6], in data set [7], in [9], in data set [10], in data set [12] and in data set [13] was more than 50 µM in each case. Further, the “cytotoxicity toward tumor cell lines and PBMCs (in words)” value in data set [8] is given as “weakly toxic or nontoxic”.

As to `COC1=C(C)C(=O)c2ccccc2C1=O` [Compound 17], the half-inhibitory concentration (IC50) in [6], in data set [7], in [10], in [12] and in data set [13] was more than 50 µM in each case.

As a reminder, the IC50 is the concentration needed to halve the response being measured. What is called Kd is the concentration at which binding is half-saturated. A low value points to tighter binding.
